Measured values published in PubChem BioAssay (NCI).
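Compound exposure: 48 hours, 5 concentrations, 96-well plates. TGI marks complete inhibition of growth.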

Tests used:
Experiment in all cases: NCI tumour cell line growth inhibition, 48 h
OVCAR-8 ovarian = tested on: OVCAR-8 ovarian
HCT-116 colon = tested on: HCT-116 colon
HT29 colon = tested on: HT29 colon
SK-MEL-5 melanoma = tested on: SK-MEL-5 melanoma
MDA-N = tested on: MDA-N
UACC-257 melanoma = tested on: UACC-257 melanoma
NCI-H522 lung = tested on: NCI-H522 lung
SNB-19 CNS = tested on: SNB-19 CNS
SR leukemia = tested on: SR leukemia
SK-MEL-28 melanoma = tested on: SK-MEL-28 melanoma
ACHN renal = tested on: ACHN renal
PC-3 prostate = tested on: PC-3 prostate
NCI-H226 lung = tested on: NCI-H226 lung
RPMI-8226 leukemia = tested on: RPMI-8226 leukemia
NCI/ADR-RES ovarian = tested on: NCI/ADR-RES ovarian
SF-539 CNS = tested on: SF-539 CNS
MDA-MB-231 breast = tested on: MDA-MB-231 breast
HOP-92 NSCLC = tested on: HOP-92 NSCLC
NCI-H460 lung = tested on: NCI-H460 lung
BT-549 breast = tested on: BT-549 breast
T-47D breast = tested on: T-47D breast
CCRF-CEM leukemia = tested on: CCRF-CEM leukemia
OVCAR-3 ovarian = tested on: OVCAR-3 ovarian
MCF7 breast = tested on: MCF7 breast
MALME-3M melanoma = tested on: MALME-3M melanoma
MDA-MB-435 = tested on: MDA-MB-435
HS 578T breast = tested on: HS 578T breast
NCI-H23 lung = tested on: NCI-H23 lung
EKVX NSCLC = tested on: EKVX NSCLC
OVCAR-5 ovarian = tested on: OVCAR-5 ovarian
KM12 colon = tested on: KM12 colon
MOLT-4 leukemia = tested on: MOLT-4 leukemia
SF-295 CNS = tested on: SF-295 CNS
TK-10 renal = tested on: TK-10 renal
A498 renal = tested on: A498 renal
M14 melanoma = tested on: M14 melanoma
IGROV1 ovarian = tested on: IGROV1 ovarian
OVCAR-4 ovarian = tested on: OVCAR-4 ovarian
SK-MEL-2 melanoma = tested on: SK-MEL-2 melanoma
SF-268 CNS = tested on: SF-268 CNS
SNB-75 CNS = tested on: SNB-75 CNS
UO-31 renal = tested on: UO-31 renal
COLO 205 colon = tested on: COLO 205 colon
SN12C renal = tested on: SN12C renal
CAKI-1 renal = tested on: CAKI-1 renal
HCT-15 colon = tested on: HCT-15 colon
UACC-62 melanoma = tested on: UACC-62 melanoma
A549 NSCLC = tested on: A549 NSCLC
786-0 renal = tested on: 786-0 renal
HCC-2998 colon = tested on: HCC-2998 colon
U251 CNS = tested on: U251 CNS
K-562 leukemia = tested on: K-562 leukemia
DU-145 prostate = tested on: DU-145 prostate
SK-OV-3 ovarian = tested on: SK-OV-3 ovarian
RXF 393 renal = tested on: RXF 393 renal
HOP-62 NSCLC = tested on: HOP-62 NSCLC

Cc1c(C)c(S(=O)(=O)N(CCCCCCN)OCCCN)c(C)c2c1OC(C)(C)CC2
TGI (OVCAR-8 ovarian): 26 µM | TGI (HCT-116 colon): 4.63 µM | TGI (HT29 colon): 24.9 µM | TGI (SK-MEL-5 melanoma): > 35.6 µM | TGI (MDA-N): 30.9 µM | TGI (UACC-257 melanoma): 29.7 µM | TGI (NCI-H522 lung): 9.95 µM | TGI (SNB-19 CNS): 12.9 µM | TGI (SR leukemia): > 31.6 µM | TGI (SK-MEL-28 melanoma): 71.9 µM | TGI (ACHN renal): 25.6 µM | TGI (PC-3 prostate): 17.3 µM | TGI (NCI-H226 lung): 27.5 µM | TGI (RPMI-8226 leukemia): 7.68 µM | TGI (NCI/ADR-RES ovarian): 33.2 µM | TGI (SF-539 CNS): > 100 µM | TGI (MDA-MB-231 breast): 20.1 µM | TGI (HOP-92 NSCLC): 15.2 µM | TGI (NCI-H460 lung): 8.45 µM | TGI (BT-549 breast): 28.6 µM | TGI (T-47D breast): > 47.1 µM | TGI (CCRF-CEM leukemia): > 20.9 µM | TGI (OVCAR-3 ovarian): 7.53 µM | TGI (MCF7 breast): > 100 µM | TGI (MALME-3M melanoma): 4.34 µM | TGI (MDA-MB-435): 15 µM | TGI (HS 578T breast): 13 µM | TGI (NCI-H23 lung): 24 µM | TGI (EKVX NSCLC): 19.8 µM | TGI (OVCAR-5 ovarian): > 51.4 µM | TGI (KM12 colon): 3.75 µM | TGI (MOLT-4 leukemia): 10.4 µM | TGI (SF-295 CNS): 22.6 µM | TGI (TK-10 renal): 32.8 µM | TGI (A498 renal): 40.3 µM | TGI (M14 melanoma): > 64.1 µM | TGI (IGROV1 ovarian): 4.62 µM | TGI (OVCAR-4 ovarian): 8.37 µM | TGI (SK-MEL-2 melanoma): 6.13 µM | TGI (SF-268 CNS): 22.5 µM | TGI (SNB-75 CNS): 11 µM | TGI (UO-31 renal): 28.6 µM | TGI (COLO 205 colon): > 26.5 µM | TGI (SN12C renal): > 100 µM | TGI (CAKI-1 renal): > 53.1 µM | TGI (HCT-15 colon): 34.7 µM | TGI (UACC-62 melanoma): 30.6 µM | TGI (A549 NSCLC): 29 µM | TGI (786-0 renal): 11.9 µM | TGI (HCC-2998 colon): 3.8 µM | TGI (U251 CNS): > 20.7 µM | TGI (K-562 leukemia): > 28.3 µM | TGI (DU-145 prostate): 64 µM | TGI (SK-OV-3 ovarian): 25.2 µM | TGI (RXF 393 renal): 15.6 µM | TGI (HOP-62 NSCLC): 15.9 µM
